Measurements taken from patent US4716153A, “Stable oral preparation of macrolide antibiotics and method for stabilizing the same” (priority 1982, dated 1987).
Read-outs that look alike come from different tables or passages of the source.

Experiment: AUC after oral administration of tablets to beagle dogs (bioassay of blood)
Type: in vivo
Details: for AUC at 6 h: dog, blood, po, 500 mg
Method: An amount of the dissolution accelerators used, showing pH 2.5-4 in an aqueous solution will be described in detail. […] In all of these cases, the elution rate of 3"-propionylleucomycin A5 is less than 60%. […] In order to obtain their good absorbability, generally, it is necessary to use the pH at which the elution rate is favorable. […] The accelerators need to be used in 5-100 mg in formulating preparations. It is particularly preferred that these dissolution accelerators, for example tartaric acid and citric acid are used in a total amount of 40-100 mg at single administration. That is, one tablet is allowed to contain about 40-100 mg in the administration of one tablet a time, and about 20-50 mg each in two tablets a time. It is also particularly preferred, when the antibiotics are applied orally in the form of powders, fine granules, capsules, granules or dry syrups, that the accelerators are used in approximately 40-100 mg to the 16-membered ring macrolide antibiotics given in a 200 mg potency a time. It is suitable for preservation that these dissolution accelerators are used coated with film-forming substances by a microcapsulization technique using the accelerators as core materials.
To a mixture comprising TMS-19-Q and light anhydrous silicic acid, 10% w/w HPMC aqueous solution was added. Then the mixture was kneaded, dried and sieved by the use of a 24 mesh sieve to obtain Granule A.
To a mixture comprising glycine, citric acid anhydride and light silicic acid, 5% w/w HPMC aqueous solution was added as binder, and the mixture was made into granules by fluidized bed method (FB method). Then the granules were dried and sieved through 24 mesh screen to obtain Granule B.
To Granule A and Granule B, L-HPC and Avicel PH301 (to be adjusted by an amount of citric acid added: 52.7-12.7 g) and magnesium stearate were added and mixed. Then, the mixed powder was molded by pressure to the size of 14×8 mm and tablets were obtained, each of which (430 mg) containing 100 mg potency of TMS-19-Q 170 mg glycine and citric acid (0, 10, 20, 30 and 40 mg).

AUC versus amount of citric acid (in words) (beagles, oral, citric acid 30-40 mg): reached saturation
AUC at 6 h (read-out: AUC (area under a blood level versus time curve), 0 mg citric acid): 11800 ng·h/mL
AUC at 6 h (read-out: AUC (area under a blood level versus time curve), 10 mg citric acid): 12300 ng·h/mL
AUC at 6 h (read-out: AUC (area under a blood level versus time curve), 20 mg citric acid): 17000 ng·h/mL
AUC at 6 h (read-out: AUC (area under a blood level versus time curve), 30 mg citric acid): 20500 ng·h/mL
AUC at 6 h (read-out: AUC (area under a blood level versus time curve), 40 mg citric acid): 20900 ng·h/mL
Structure (SMILES): CCCC(=O)OC1C(C)OC(OC2C(C)OC(OC3C(CC=O)CC(C)C(O)/C=C/C=C/CC(C)OC(=O)CC(O)C3OC)C(O)C2N(C)C)CC1(C)OC(=O)CC (stereo not shown) [TMS-19-Q, 3"-propionyl leucomycin A5]
blood concentrations or absorbability (in words) (beagles, oral, citric acid more than 30 mg per tablet): Good blood concentrations or absorbability
